Reference: patent US9247741B2, “Use of macrocyclic picolinamides as fungicides” (DOW AGROSCIENCES LLC, priority 2013, dated 2016)
Like-named read-outs stand apart in the source and are kept apart here.

Tests used:
[1] = test system: Puccinia triticina; test: Wheat brown rust (PUCCRT) disease control on wheat seedlings; assay type: in vivo; details: for pest or weed control at 100 ppm: 100 ppm (high volume); for pest or weed control at 121.5 g/ha: 121.5 g/H (low volume track spray)
Procedure: Technical grades of materials were dissolved in acetone, which were then mixed with nine volumes of water containing 110 ppm Triton X-100. The fungicide solutions were applied onto wheat seedlings using an automated booth sprayer to run-off. All sprayed plants were allowed to air dry prior to further handling. All fungicides were evaluated using the aforementioned method for their activity vs. all target diseases. Wheat leaf blotch and brown rust activity were also evaluated using track spray applications, in which case the fungicides were formulated as EC formulations, containing 0.1% Trycol 5941 in the spray solutions. Wheat plants (variety Yuma) were grown from seed in a greenhouse in 50% mineral soil/50% soil-less Metro mix until the first leaf was fully emerged, with 7-10 seedlings per pot. These plants were inoculated with an aqueous spore suspension of Septoria tritici either prior to or after fungicide treatments. After inoculation the plants were kept in 100% relative humidity (one day in a dark dew chamber followed by two to three days in a lighted dew chamber at 20° C.) to permit spores to germinate and infect the leaf. The plants were then transferred to a greenhouse set at 20° C. for disease to develop. When disease symptoms were fully expressed on the l^st leaves of untreated plants, infection levels were assessed on a scale of 0 to 100 percent disease severity. Percent disease control was calculated using the ratio of disease severity on treated plants relative to untreated plants. Evaluation of Fungicidal Activity: Wheat Brown Rust (Puccinia triticina; Synonym: Puccinia recondite f sp. tritici; Bayer code PUCCRT) Wheat plants (variety Yuma) were grown from seed in a greenhouse in 50% mineral soil/50% soil-less Metro mix until the first leaf was fully emerged, with 7-10 seedlings per pot. These plants were inoculated with an aqueous spore suspension of Puccinia triticina either prior to or after fungicide treatments. After inoculation the plants were kept in a dark dew room at 22° C. with 100% relative humidity overnight to permit spores to germinate and infect the leaf. The plants were then transferred to a greenhouse set at 24° C. for disease to develop. Fungicide formulation, application and disease assessment followed the procedures as described in the Example A.

[2] = test system: Mycosphaerella graminicola; Anamorph: Septoria tritici; test: Leaf blotch of wheat (SEPTTR) disease control on wheat seedlings; assay type: in vivo; details: Zymoseptoria tritici; for pest or weed control at 121.5 g/ha: 121.5 g/H (low volume track spray)
Procedure: Evaluation of Fungicidal Activity: Leaf Blotch of Wheat (Mycosphaerella graminicola; Anamorph: Septoria tritici; Bayer Code […]) Technical grades of materials were dissolved in acetone, which were then mixed with nine volumes of water containing 110 ppm Triton X-100. The fungicide solutions were applied onto wheat seedlings using an automated booth sprayer to run-off. All sprayed plants were allowed to air dry prior to further handling. All fungicides were evaluated using the aforementioned method for their activity vs. all target diseases. Wheat leaf blotch and brown rust activity were also evaluated using track spray applications, in which case the fungicides were formulated as EC formulations, containing 0.1% Trycol 5941 in the spray solutions. Wheat plants (variety Yuma) were grown from seed in a greenhouse in 50% mineral soil/50% soil-less Metro mix until the first leaf was fully emerged, with 7-10 seedlings per pot. These plants were inoculated with an aqueous spore suspension of Septoria tritici either prior to or after fungicide treatments. After inoculation the plants were kept in 100% relative humidity (one day in a dark dew chamber followed by two to three days in a lighted dew chamber at 20° C.) to permit spores to germinate and infect the leaf. The plants were then transferred to a greenhouse set at 20° C. for disease to develop. When disease symptoms were fully expressed on the l^st leaves of untreated plants, infection levels were assessed on a scale of 0 to 100 percent disease severity. Percent disease control was calculated using the ratio of disease severity on treated plants relative to untreated plants.

[3] = 24 h, 1 Day Protectant, read-out: PUCCRT 1DP disease control rating
[4] = 72 h, 3 Day Curative, read-out: PUCCRT 3DC disease control rating
[5] = 24 h, 1 Day Protectant, wheat, read-out: SEPTTR 1DP disease control rating
[6] = 72 h, 3 Day Curative, wheat, read-out: SEPTTR 3DC disease control rating
[7] = 24 h, 1 Day Protectant, 100 ppm (high volume), wheat, read-out: SEPTTR 1DP disease control rating
[8] = 72 h, 3 Day Curative, 100 ppm (high volume), wheat, read-out: SEPTTR 3DC disease control rating

Structure (SMILES)	pest or weed control at 100 ppm [1, 3] [%]	pest or weed control at 100 ppm [1, 4] [%]	melting point [°C]	pest or weed control at 100 ppm [2, 7] [%]	pest or weed control at 100 ppm [2, 8] [%]	other results
CCCO[C@H]1CCC[C@H](NC(=O)c2nccc(OC)c2O)C(=O)O[C@@H](C)[C@@H]1CCC(C)C [Compound 31, 3-hydroxy-N-((3S,7S,8S,9S)-8-isopentyl-9-methyl-2-oxo-7-propoxyoxonan-3-yl)-4-methoxypicolinamide]	> 70	< 70	45 to 49	–	–	pest or weed control at 100 ppm ([2]; 24 h, read-out: SEPTTR 1DP disease control rating): < 70%; pest or weed control at 100 ppm ([2]; 72 h, read-out: SEPTTR 3DC disease control rating): < 70%
CC(C)CC[C@H]1[C@H](C)OC(=O)[C@@H](NC(=O)OC(C)(C)C)CCC[C@@H]1OCc1ccccc1 [Compound 51]	–	–	97 to 100	–	–	–
COc1ccnc(C(=O)N[C@H]2CCC[C@H](OCc3ccccc3)[C@@H](CCC(C)C)[C@H](C)OC2=O)c1OC(C)=O [Compound 17]	–	–	58 to 62	–	–	pest or weed control at 121.5 g/ha [1, 3]: > 70%; pest or weed control at 121.5 g/ha [1, 4]: > 70%; pest or weed control at 121.5 g/ha [2, 5]: > 70%; pest or weed control at 121.5 g/ha [2, 6]: > 70%
COc1ccnc(C(=O)N[C@H]2CCC[C@H](Oc3ccccc3)[C@@H](CCC(C)C)[C@H](C)OC2=O)c1O [Compound 8]	> 70	> 70	55 to 60	> 70	> 70	–
COc1ccnc(C(=O)N[C@H]2CCC[C@H](Oc3ccc(C)cc3)[C@@H](Cc3ccccc3)[C@H](C)OC2=O)c1O [Compound 60]	> 70	> 70	68 to 71	> 70	> 70	–
CCCO[C@H]1CCC[C@H](NC(=O)c2nccc(OC)c2O)C(=O)O[C@@H](C)[C@@H]1Cc1ccccc1 [Compound 49]	> 70	> 70	59 to 64	> 70	> 70	–
CCCC[C@H]1[C@H](C)OC(=O)[C@@H](N)CCC[C@@H]1OCCCC(F)(F)F.Cl	–	–	196 to 198	–	–	–
CCCC[C@H]1[C@H](C)OC(=O)[C@@H](NC(=O)c2nccc(OC)c2O)CCC[C@@H]1OC(=O)C(C)C [Compound 64]	> 70	< 70	–	> 70	> 70	–
CCCC[C@H]1[C@H](C)OC(=O)[C@@H](N)CCC[C@@H]1OCC1CC1.Cl	–	–	223 to 224	–	–	–
CCCC[C@H]1[C@H](C)OC(=O)[C@@H](NC(=O)c2nccc(OC)c2O)CCC[C@@H]1OCCCC(F)(F)F [Compound 13]	> 70	< 70	–	> 70	< 70	–
COc1ccnc(C(=O)N[C@H]2CCC[C@H](Oc3ccc(C)cc3)[C@@H](Cc3ccc(F)cc3)[C@H](C)OC2=O)c1OC(C)=O [Compound 21]	–	–	–	–	–	pest or weed control at 121.5 g/ha [1, 3]: > 70%; pest or weed control at 121.5 g/ha [1, 4]: < 70%; pest or weed control at 121.5 g/ha [2, 5]: > 70%; pest or weed control at 121.5 g/ha [2, 6]: < 70%
